The values that follow come from patent US11584728B2, “Compositions and methods for the prevention and/or treatment of mitochondrial disease, including Friedreich's ataxia” (STEALTH BIOTHERAPEUTICS INC., priority 2019, dated 2023).

Test [1] deals with HepG2 human hepatocarcinoma cells. Nature of the test: Rotenone ATP-Assay (Complex I by-pass). The note with it: for EC50: Homo sapiens, 1 h; for Activity in both the BSO Assay and the Rotenone ATP Assay (in words): circumvent BSO induced cell death and restore ATP production when Complex I is inhibited. In kind it is cell-based. Here is the method: Example 18: Rotenone ATP-Assay
Introduction: • This assay has been adapted from Haefeli R H, Erb M, Gemperli A C, Robay D, Courdier Fruh I, et al. (2011) NQO1-Dependent Redox Cycling of Idebenone: Effects on Cellular Redox Potential and Energy Levels. PLoS ONE 6(3): e17963. HepG2 human hepatocarcinoma cells were co-incubated with the electron transport chain Complex I toxin rotenone +/−compounds of interest and the corresponding effect on ATP synthesis was measured with a bioluminescent substrate.
Assay Experimental: • In brief, HepG2 cells were plated at 25,000 cells per well in low glucose (1 gram/Liter) DMEM medium +10% fetal calf serum and incubated for 24 hours. The following day, the media was decanted and subsequently replaced with glucose free/serum free DMEM which has been supplemented with 50 micromolar rotenone and compound of interest. Serial dilutions of compound were prepared in 3× dilutions beginning at 25 micromolar. The cells were incubated for 60 minutes in a humidified tissue culture incubator. Following incubation, ATP levels were quantified via bioluminescent assay (Promega […]) and readings were captured on a standard microplate reader.
Calculations: • ATP bioluminescence is plotted versus the log of compound of interest and data were used to generate EC50 values. Curve fitting was performed using a sigmoidal dose response curve fit function (GraphPad Prism software).
Robustness of curve fit was assessed as a quality control measure, with an R squared value of at least 0.80 being required for a successful curve fit. Compounds of interest showing an increase in ATP bioluminescence relative to vehicle control were verified in an independent biological replicate of n=3 technical replicates per dose.
Discussion: • This assay is a direct measure of the ability of compounds of interest to restore ATP production under conditions of inhibition of Complex I of the mitochondrial electron transport chain. As the majority of ATP produced via the electron transport chain is thought to derive from Complex I activity, significant impairment in Complex I function has dire biological consequences. Of note, Complex I mutations are thought to drive pathophysiology in multiple mitochondrial diseases, including Leigh syndrome and Leber's Hereditary Optic Neuropathy (LHON), while diminished Complex I activity and the resultant attenuation of ATP production has been shown in neurodegenerative diseases, including Friedreich's Ataxia, Parkinson's Disease and Huntington's Disease.

The subject of a further test is GM03665 cells. Nature of the test: RSL3 Toxicity Assay (RSL3 Assay). Format: cell-based, human. The note with it: for EC50: Homo sapiens, GM03665 cells, RSL3 2 μM, 24 hours, MTT. Here is the method: Example 19: RSL3 Toxicity Assay (RSL3 Assay)
In brief, GM03665 cells (Coriell Institute) were seeded in 96-well plates (Sarstedt) in DMEM cell culture media containing 10% Fetal Bovine serum and 1% Penicillin-Streptomycin (Pen-Strep) antibiotic mix at the amount of 2×10^4/mL (100 μL or 2×10^3 cells per well). Cells were left to rest overnight at 37° C. in a humidified atmosphere with 5% CO2 to allow attachment of the cells to the culture plate. Test compounds were prepared as DMSO stocks (10 mM) and were serially diluted in cell culture media to obtain 2× working solutions. Cell media was discarded and replaced by 50 μL of test compound solutions or cell media with vehicle for control wells. Within 15 minutes, 2× working solution (4 μM) of 1S,3R-RSL3 (CAS #1219810-16-8, Sigma-Aldrich) (diluted from 5 mM DMSO stock in cell culture media) was added. Final reaction volume was 100 μL and final DMSO concentration in reaction was kept below 0.2% (v/v) and equal in all wells. Final RSL3 concentration was 2 μM and test compound final concentrations in reaction were up to 1000 nM. After 24 hours of incubation cell viability was assessed by MTT test. MTT (Sigma-Aldrich) solution 1 mg/mL in 1×PBS (pH=7,4) was prepared 1 hour before the assay and filtered through Filtropur S 0.2 filters (Sarstedt). Cell media with test compounds was discarded and 100 μL of MTT solution was added to cells. The plates were incubated for 2 hours at +37° C. Thereafter, the MTT solution was removed and 100 μL of isopropanol was added to dissolve sediment. Absorption at 570 and 650 nm was measured using Hidex Sense microplate reader.

For a further test, the system named is Nrf-2. Briefly: Nrf-2 Activation Assay (Nrf-2 Assay). In kind it is cell-based, human. The note with it: Table 7; GM03665 fibroblasts, 1 μM, 24 hours, qPCR of Nrf-2 responsive genes. Here is the method:
Example 21: Nrf-2 Activation Assay (Nrf-2 Assay)
This assay was developed internally and was designed to determine if the novel test compounds disclosed herein active Nrf-2 and thereby promote resolution of inflammation by the mechanism believed to be responsible for the activity of omaveloxolone.
Briefly, GM03665 Friedreich Ataxia patient fibroblasts were grown in 12 Well Plates (TC Cell+F) (Sarstedt, Nümbrecht Germany), at a density of 12×10^4 cells/per well in DMEM/F12 (Gibco, ThermoFisher Scientific, Waltham, Mass., USA) cell media supplemented with 10% FBS and 1% Pen/Strep. Cells were left to rest overnight at 37° C. in a humidified atmosphere with 5% CO2 to allow attachment of the cells to the culture plate. Before continuing assay visual inspection of each well was done by light microscopy to detect any possible bacterial and fungal contamination. […] After incubation, cell media was removed and total RNA from the cells was isolated using E.Z.N.A.® Total RNA Kit I (Omega Bio-tek, Norcross, Ga., USA) spin columns, and first-strand cDNA synthesis was carried out using a High Capacity cDNA Reverse Transcription Kit (Applied Biosystems™, Foster City, Calif.) following the manufacturer's instructions. qPCR analysis of gene expression was performed by mixing SYBR® Green Master Mix (Applied Biosystems™) with synthesized cDNA and forward and reverse primers. […] (60 cycles), and 95° C. for 60 seconds, followed by melt curve analysis at 72-95° C., 0.3° C./sec. The relative expression levels for each gene were calculated with the ΔΔCt method and normalized to the expression of REEP5 and SNRPD3 genes.

The next test has as its target lipoxygenase-15 enzyme (Glycine max (Soybean) (Glycine hispida), UniProt P08170). Briefly: Lipoxygenase-15 Assay (LO-15-Assay). Format: biochemical. Particulars: reduced (hydroquinone) form.
The test system of test [2] is frataxin deficient fibroblasts (GM03665). Nature of the test: Frataxin Deficient Fibroblast Viability Assay (BSO Assay). The note with it: Homo sapiens, 48 h.
For another test, the system named is intact HepG2 cells. Nature of the test: Rotenone Oxygraph Assay (High-Resolution Respirometry of Intact HepG2 Cells). In kind it is cell-based, human. Particulars: rotenone 1 μM, compound 10 μM; for Percent increase in ATP (Rotenone Oxygraph Assay), Mean: Table 4; for Percent increase in ATP (Rotenone Oxygraph Assay), Mean / Rotenone Oxygraph Assay % Increase: intact HepG2 cells; for Rotenone Oxygraph Assay % Increase: Table 7. Here is the method: Example 20: Rotenone Oxygraph Assay (High-Resolution Respirometry of Intact HepG2 Cells)
The Oxygraph-2k (O2k, OROBOROS INSTRUMENTS, Austria) was used for measurements of respiration of intact cells. The respirometry was performed in Dulbecco's Modified Eagle Medium (DMEM) high glucose without supplements. All experiments were performed at 37° C.
HepG2 cells (ATCC collection code HB-8065™) were cultured in 10 cm^2 culture dishes in DMEM high glucose medium supplemented with 10% fetal bovine serum (FBS) and 100 units/mL penicillin and 100 μg/mL streptomycin until approximately 90% confluence was reached. Immediately prior to performing the respirometric assay, the cells were washed with media without FBS, trypsinized and resuspended in DMEM high glucose without FBS.
The final concentration of intact cells in the O2k-chamber was 0.5·10^6/mL. After stabilization of respiration, the Complex I inhibitor, rotenone, at 1 μM final concentration was added to inhibit electron flux via Complex I. Then, compound to be tested was added at 10 μM final concentration, and the change in respiration rate of intact cells was monitored.

The mark [3] stands for this setting: HepG2 cells, 50 micromolar rotenone, 60 minutes, ATP bioluminescence, read-out: EC50 Rotenone ATP Assay.
[4] abbreviates: Table 7, HepG2 cells, 50 micromolar rotenone, 60 minutes, read-out: Rotenone ATP Assay EC50.
[5] abbreviates: Table 3, mean of at least three measurements, nM printed in Table 7, read-out: RSL3 Assay EC50, Mean.
The mark [6] stands for this setting: Table 7, read-out: RSL3 Assay EC50.

The structures appear in SMILES notation. Like-named read-outs stand apart in the source and are kept apart here.

Consider `CC1=C(C)C(=O)C(CC[C@](C)(O)CC/C=C(\C)CC/C=C(\C)CCC=C2COC2)=C(C)C1=O` [Compound E, 2-((R,6E,10E)-3-hydroxy-3,7,11-trimethyl-14-(oxetan-3-ylidene)tetradeca-6,10-dien-1-yl)-3,5,6-trimethylcyclohexa-2,5-diene-1,4-dione], for which the EC50 in test [1] (setting [3]) was 1 to 3 µM; in test [1] (setting [4]), 2.81 µM; with GM03665 cells (setting [5]), 73.2 nM; in the test with GM03665 cells (setting [6]), 73.2 nM; in test [2] (read-out: BSO Assay) it was 65.1 nM; in test [2] (read-out: EC50 (nM) BSO Assay) it was less than 100 nM. Also, the “Activity in both the BSO Assay and the Rotenone ATP Assay (in words)” value in test [1] was “possess both activities”. In addition, the “Nrf-2 Assay” value with Nrf-2 was “Inactive”. For the same compound, the “Activity in the LO-15 assay (in words)” value at lipoxygenase-15 enzyme was “outside of the range of the assay”.

Consider `CC1=C(C)C(=O)C(CC[C@@](C)(O)COCCC[Si](C)(C)C)=C(C)C1=O` [Compound M, (R)-2-(3-hydroxy-3-methyl-4-(3-(trimethylsilyl)propoxy)butyl)-3,5,6-trimethylcyclohexa-2,5-diene-1,4-dione], for which the EC50 is 1 to 3 µM in test [1] (setting [3]); 1.34 µM in test [1] (setting [4]); 41.2 nM in the test on GM03665 cells (setting [5]); 41.2 nM with GM03665 cells (setting [6]); 61.2 nM in test [2] (read-out: BSO Assay). Also, the “Activity in the RSL3 assay (in words)” value with GM03665 cells (protection of Friedreich's ataxia fibroblasts from RSL3) is listed as “active”. In the test on intact HepG2 cells, the “Percent increase in ATP (Rotenone Oxygraph Assay), Mean” value was 56.6 +/− 11.3%. For the same compound, the “Rotenone Oxygraph Assay % Increase” value in the test on intact HepG2 cells was 56.6 +/− 11.3%. Further, the “Nrf-2 Assay” value in the test with Nrf-2 is reported as “Inactive”. Also, on lipoxygenase-15 enzyme, the “Activity in the LO-15 assay (in words)” value is “best result”.

In the case of `CC1=C(C)C(=O)C(CC[C@](C)(O)CCCCCCCCC(F)(F)F)=C(C)C1=O` [Compound N, (R)-2,3,5-trimethyl-6-(12,12,12-trifluoro-3-hydroxy-3-methyldodecyl)cyclo-hexa-2,5-diene-1,4-dione], the EC50 in test [1] (setting [3]) is 1 to 3 µM; in test [1] (setting [4]), 2.37 µM; in the test on GM03665 cells (setting [5]) it was 93 nM; in the test on GM03665 cells (setting [6]), 93 nM; in test [2] (read-out: BSO Assay), 144 nM; in test [2] (read-out: EC50 (nM) BSO Assay), 100 to 1000 nM. Further, in test [1], the “Activity in both the BSO Assay and the Rotenone ATP Assay (in words)” value is listed as “possess both activities”. The “Nrf-2 Assay” value with Nrf-2 is on record as “Inactive”.

On to `CC(C)=CCC/C(C)=C/CC/C(C)=C/CC[C@@](C)(O)CCC1=C(C)C(=O)C(C)=C(C)C1=O` [Vatiquinone, reference compound], for which the EC50 in test [1] (setting [3]) was more than 3 µM; in the test on GM03665 cells (setting [5]), 56 nM; in the test on GM03665 cells (setting [6]), 56 nM; in test [2] (read-out: BSO Assay), 44.3 nM; in test [2] (read-out: EC50 (nM) BSO Assay), less than 100 nM. In addition, the “Rotenone ATP Assay EC50, nM” value in test [1] (Table 7, HepG2 cells, 50 micromolar rotenone, 60 minutes) was “Inactive”. In the test on intact HepG2 cells, the “Percent increase in ATP (Rotenone Oxygraph Assay), Mean” value is “Inactive”. Moreover, the “Rotenone Oxygraph Assay % Increase” value in the test on intact HepG2 cells is reported as “Inactive”. The “Activity in the Rotenone Oxygraph assay, Complex I by-pass (in words)” value in the test on intact HepG2 cells is “inactive”.
